# Measured values as given in patent US11166924B2, “N-methyl-d-aspartate receptor allosteric modulators and methods for their use” (Qingdao Primedicine Pharmaceutical Company, Ltd., priority 2016, dated 2021).
# Key:
# [1] = tested on: rat model of middle cerebral artery occlusion (MCAo); test: Cerebral ischemia (MCAo) infarct volume; format: in vivo
# Excerpt: Adult male Sprague Dawley rats weighting ˜200 g were anesthetized, and the middle cerebral artery (MCA) was exposed by making a craniotomy window (2 mm in diameter) 1 mm rostral to the anterior junction of the zygoma and the squamosal bone. We used the suture ligation method to achieve three-vessel occlusion. The exposed MCA was ligated with a square knot using a 10-0 nylon suture. Next, the bilateral common carotid arteries (CCAs) were clamped with nontraumatic arterial clips. Successful surgery was confirmed by a marked drop in regional cerebral blood flow, monitored by a laser Doppler flowmeter (PF-5010, Periflux system; Perimed AB). After 90 min ischemia, the suture and clips were removed to allow instant reperfusion. Experimental rats were subdivided into groups to receive different doses of Npam43 or saline/vehicle (as indicated) via femoral vein injection. 2,3,5-Triphenyltetrazolium chloride (TTC) was used to evaluate infarct size in stained brain sections. […]
# The rats were anesthetized, with body temperature maintained at 37.0±0.5° C. with a heating pad during imaging. […] The non-infarct areas were drawn manually from slice to slice and the volumes were measured with Voxtool analysis software (General Electric). The infarct size was quantified by subtracting the non-infarct volume of the ischemic hemisphere from the total volume of the contralateral hemisphere. […]
# [2] = Pharmacokinetics after i.v. injection, CSF and serum by HPLC-ECD; format: in vivo, rat
# Method: Npam43 was isolated from the CSF and serum matrix using high performance liquid chromatography and quantified via electrochemical detection. The system consisted of an ESA 582 pump (Bedford, Mass.), a pulse damper (Scientific Systems Inc., State College, Pa.), a Rheodyne Inert manual injector (model 9125i, 20 μL injection loop; Rohnert Park, Calif.), a Tosoh Bioscience Super ODS TSK column (2 μm particle, 2 mm×10 mm; Montgomeryville, Pa.), and an Antec Leyden Intro Electrochemical detector with VT-03 flow cell with a Ag/AgCl reference electrode (Vapplied=+800 mV; Leyden, The Netherlands). The mobile phase was a 20 mM phosphate buffer-acetonitrile (80:20, v/v) mixture, pH 7.0, flowed through the system at 0.1 mL/min. The column was maintained at 40° C. throughout the analysis and the injection volume was 8 uL. Prior to use, the mobile was filtered through a […] membrane and degassed using a vacuum pump and maintained under helium purging during experimental testing. EZChrome Elite software (Scientific Software, Pleasanton, Calif.) was used to acquire and analyze chromatographic data.
# Samples were prepared by mixing aliquots (50:50) of the specimen with acetonitrile. The samples were mixed, allowed to rest at ambient temperature for 10 min and centrifuged at 5000 g for 5 min. Eight microliters of the supernatant was injected.
# CSF and serum samples generated from the in vivo studies were thawed, and 8 μl was transferred to individual Eppendorf tubes. The internal standard (IS) of 2 μl of 0.5 μg/ml Npam50 was then added, followed by 22 μl of acetonitrile, after which samples were vortexed for 5-10 s and centrifuged for 5 min at 20,000×g to sediment precipitated protein. […]
# An in-vivo pharmacological profile of Npam43 was evaluated using Sprague Dawley mature (˜300 g) rats. Npam43 was injected intravenously (i.v) at different doses ranging from 0.5-5 mg/kg and cerebrospinal fluid (CSF) and serum samples were extracted and analyzed using a high performance liquid chromatography electrochemical detection assay (HPLC-ECD). […]
smiles,measurement,setting,value
"CCOc1cc(Cl)c(Cl)c(/C=N/NC(=O)c2ccccc2Br)c1O [Npam43, (E)-2-bromo-N′-(2,3-dichloro-5-ethoxy-6-hydroxybenzylidene)benzohydrazide]","Infarct size, long term evaluation point","[1]; 7 days, MRI scanning, FIG. 25",reduces infarct size
same,Infarct volume,"[1]; MCAo rats, compared to vehicle/saline, 24 h post ischemia (FIG. 24)",reduces infarct volume
same,half-life,"[2]; Sprague-Dawley, rat, CSF, iv, rats, estimated",2.95 ± 0.6 h
same,Blood-brain-barrier penetration,"[2]; i.v. 0.5-5 mg/kg, Sprague Dawley rats",effective at penetrating the blood-brain-barrier (BBB)
same,Metabolic stability in the CSF and serum,"[2]; i.v., rats, FIG. 22",moderate metabolic stability
